Experimental data published in patent US8415376B2, “Inhibitors of PI3 kinase” (Amgen Inc., priority 2008, dated 2013).

Columns and labels:
PI3Kα [1] = target: T1, PI3Kα (Homo sapiens, UniProt P42336); experiment: In vitro PI3K AlphaScreen assay; type: biochemical; conditions: average if run more than once
T1 construct: Full length p110 subunits of PI3K α, β and δ, N-terminally labeled with polyHis tag; polyHis (N); made in house; host or cells: Sf9 insect cells (baculovirus)
Protocol: In Vitro PI3K Alphascreen® Assay
The PI3K AlphaScreen® assay (PerkinElmer, Waltham, Mass.) measures the activity of a panel of four phosphoinositide 3-kinases: PI3Kα, PI3Kβ, PI3Kγ, and PI3Kδ. Each of these enzymes phosphorylates the 3′-hydroxyl group on phosphatidylinositiol (4,5)-bisphosphate (PIP2) to produce phosphatidylinositol (3,4,5)-trisphosphate (PIP3). This phosphorylation activity is measured using a GST-tagged PIP3 binding protein (Echelon Biosciences, Salt Lake City, Utah), an anti-GST-tagged Acceptor bead, and streptavidin-Donor bead. […] In the absence of this interaction, proximity of the Donor and Acceptor beads is decreased, producing a loss of luminescent signal which is inversely proportional to PI3K activity.
The enzyme reaction buffer is made using sterile water (Baxter, Deerfield, Ill.) and 50 mM Tris HCl pH 7, 14 mM MgCl2, 2 mM sodium cholate, and 100 mM NaCl. 2 mM DTT is added fresh the day of the experiment. The AlphaScreen® reaction buffer is made using sterile water and 10 mM Tris HCl pH 7.5, 150 mM NaCl, 0.10% Tween 20, and 30 mM EDTA. 1 mM DTT is added fresh the day of the experiment.
The source plates for this assay are 384-well Greiner clear polypropylene plates containing test compounds at 5mM and diluted 1:2 over 22 points. […] Source plates are replicated into 384-well Optiplates (PerkinElmer, Waltham, Mass.), 0.5 μL/well, to make assay-ready plates.
The different PI3K isoforms are each diluted in enzyme reaction buffer to 2× working solutions. […] Two different 2× substrate solutions are made in enzyme reaction buffer. In one solution, PI(4,5)P2 (Echelon Biosciences, Salt Lake City, Utah) is diluted to 10 μM and ATP is diluted to 20 μM. This solution is used in the assays testing PI3Kα and PI3Kβ. In a second solution, PI(4,5)P2 is diluted to 10 μM and ATP is diluted to 8 μM. This solution used in the assays testing PI3Kγ and PI3Kδ.
The AlphaScreen® reaction solutions are made using beads from the anti-GST AlphaScreen® kit (PerkinElmer, Waltham, Mass.). Two solutions are made in Alphascreen reaction buffer to 4× working concentrations. In one solution, biotinylated-IP4 (Echelon Biosciences, Salt Lake City, Utah) is diluted to 40 nM and streptavadin-Donor Beads are diluted to 80 μg/mL. In the second solution, PIP3-binding protein (Echelon Biosciences, Salt Lake City, Utah) is diluted to 40 nM and anti-GST-Acceptor Beads are diluted to 80 μg/mL. 10 μL/well of enzyme reaction buffer is added to Column 24 of the assay ready plates in place of enzyme. This is done for plates in the PI3Kα, β, and 67 assays.
Using a 384-well dispensing Multidrop (Titertek, Huntsville, Ala.), 10 μL/well of 2× enzyme (PI3Kα, β, δ) is added to Columns 1-23 of the appropriate assay ready plates (for PI3Kγ 10 μL is added to Columns 1-24). 10 μL/well of the appropriate substrate solution (the solution with 20 μM ATP for PI3Kα and β assays, and the solution with 8 μM ATP for PI3Kγ and δ assays) is then added to Columns 1-24 of the plates. Plates are then incubated at room temperature for 20 minutes.
In the dark, 10 μL/well of the Donor Bead solution is added to Columns 1-24 of the plates to quench the enzyme reaction. The plates are incubated at room temperature for 30 minutes. Still in the dark, 10 μL/well of the Acceptor Bead solution is also added to Columns 1-24 of the plates. The plates are then incubated in the dark for 1.5 hours. The plates are read on an Envision Multilabel Plate Reader (PerkinElmer, Waltham, Mass.) with a 680 nm excitation filter and a 520-620 nm emission filter.

mTOR = target: T2, mTOR (Homo sapiens, UniProt P42345); experiment: In vitro mTOR assay (Lanthascreen); type: biochemical; conditions: average if run more than once
T2 construct: purchased Invitrogen (Carlsbad, Calif.)
Description: The Invitrogen (Carlsbad, Calif.) mammalian target of rapamycin (mTOR) Lanthascreen assay can be used to quantitate mTOR kinase activity in an in vitro setting. Active mTOR phosphorylates eukaryotic translation initiation factor 4E binding protein 1 (4E-BP1) on residue threonine 46. This phosphorylation event can be detected with a phospho-specific terbium (Tb) labeled Ab, in turn bringing the Tb label in close proximity to the GFP tagged 4E-BP1 and allowing for time-resolved fluorescence resonance energy transfer (TR-FRET), which correlates 4E-BP1 phosphorylation levels with mTOR kinase activity.
Enzyme reaction buffer can be prepared in deionized water containing 50 mM HEPES (pH 7.5), 0.01% Polysorbate 20, 1 mM EGTA, and 10 mM MnCl2.
Dilutions of the compound to be tested can be prepared in 96-well polypropylene plates (Fisher Scientific, Waltham, Mass.). One row represents a 10-point dose of compound diluted 1:3 in enzyme reaction buffer and 20% dimethyl sulfoxide (DMSO). The top concentration for all compounds is 36 μM. Wells 6 and 12 can serve as the no compound (DMSO only) and high compound controls.
An mTOR substrate solution can prepared in enzyme reaction buffer containing 1600 nM green fluorescent protein tagged eukaryotic translation initiation factor 4E binding protein 1 (GFP-4E-BP1) (Invitrogen, Carlsbad, Calif.) and 28 uM adenosine triphosphate (ATP) (Calbiochem, Gibbstown, N.J.).
mTOR enzyme (Invitrogen, Carlsbad, Calif.) can be diluted in enzyme reaction buffer to a working concentration of 100 ng/mL.
The enzyme assay can be run in 384 well low volume assay plates (Corning, Corning, N.Y.). 2.5 uL of substrate solution containing GFP-4E-BP1 and ATP can be added to appropriate wells in the assay plate followed by 2.5 μL of compound dilutions. 5 μL of appropriately diluted mTOR enzyme can be added and the reaction allowed to proceed for 1 hour at room temperature. Final reagent concentrations in the enzyme assay are 50 ng/mL mTOR, 400 nM GFP-4E-BP1, and 7 μM ATP.
The enzyme assay can be terminated upon the addition of 10 μL of 20 mM EDTA and 4 nM Tb-labeled anti-phospho-4E-BP1 [T46] antibody (Invitrogen, Carlsbad, Calif.). The assay plate can then be incubated at room temperature for 1 hour and results read on a Tecan Safire II plate reader (Tecan, Männedorf, Switzerland).

[2] = tested on: phosphorylation of Akt at Serine 473; experiment: pAkt AlphaScreen (U87 cell); type: cell-based; conditions: Homo sapiens, U-87 MG; U87 MG cells, pAkt Ser473; average
Protocol: pAkt Alphascreen (U87 Cell)
The pAkt AlphaScreen® assay (PerkinElmer, Waltham, Mass.) determines whether there is phosphorylation of Akt at Serine 473 by recruitment of a phosphospecific antibody. This assay was performed using U87 MG cells. The U87 growth media consists of MEM (Gibco, Carlsbad, Calif.) supplemented with 10% FBS (Gibco,), 1× Non-Essential Amino Acids (Gibco,) and 1× Penicillin/Streptomycin/Glutamine (Gibco). The cells were maintained weekly using 0.05% Trypsin (Gibco) and replated in 150 mm TC-Treated Culture Dishes (Corning, Corning, N.Y.).
The first day of the assay, the adherent cells were trypsinized, media was added to the loose cells and cells were mixed to a homogenous mixture. 0.5 ml of the homogenous mixture was counted on the Beckman Coulter® Vi-CELL™ XR (Fullerton, Calif.). 50 frames of cells were counted and the number of viable cells was determined. The cells were then diluted to 0.25 million cells per ml, and centrifuged at 200 rcf for 5 minutes. The media was removed and the cells were reconstituted in fresh media for plating. The cells were plated at 20 μl per well on the PerkinElmer® FlexDrop PLUS in Low Volume 384 Well White Tissue Culture Plates (Corning) with a final cell density of 5K cells per well. The plates were incubated overnight at 37° Celsius, 5% CO2.
On the second day, the compound plates were prepared, the cells were treated with compound and the pAkt reaction mix was added to the cell lysate. 384 well compound plates were prepared containing 1 μl of compound per well starting at 5 mM and diluted 1:2 across the row, resulting in a 22 well serial dilution. 39 μl of growth media was added to the compound plate in rows 1-22 using the PerkinElmer® FlexDrop PLUS resulting in a DMSO concentration of 2.5%. The cell plates and diluted compound plates were put onto the VELOCITY11™ VPREP™ 384 ST where the compound plate was mixed and 5 μl of serially diluted compound or controls was added to the cell plate. The final concentration of the compounds was 25 μM serially diluted to 11.9 pM in 0.5% DMSO. The cell plates were then incubated with compound for two hours at 37° Celsius, 5% CO2. After two hours, the media in the cell plates was aspirated using the BioTek® ELx405HT plate washer (Winooski, Vt.) removing the majority of media and compound without disturbing the adherent U87 cells. The following assay reagents are components of the SureFire® Akt (Ser 473) Phosphorylation 50K Point Kit (TGR BioSciences, Adelaide, Austalia) and an IgG Detection Kit (PerkinElmer, Waltham, Mass.). 5 μl of 1× Lysis Buffer was added to each well using the PerkinElmer® FlexDrop PLUS. The plates were then incubated at room temperature on a shaker for ten minutes. The AlphaScreen® reaction was prepared under low light conditions (subdued or green light) including p-Akt (Ser 473) Reaction Buffer, Dilution Buffer, Activation Buffer, Acceptor Beads and Donor Beads at a ratio of 40:20:10:1:1 respectively. The AlphaScreen® reaction was added to the cell lysate at 6 μl per well using the PerkinElmer® FlexDrop PLUS. The plates were placed in a humid environment to reduce edge effects and incubated overnight at room temperature with restricted air flow in the dark.
On the final day of the experiment, the plates were read on the PerkinElmer® EnVision™ 2103 Multilable Reader using the standard AlphaScreen® readout. The POC is calculated and the data is analyzed to report the IC50 IP for pAkt at Serine 473.
Activity data for the compounds tested in the PI3K cell based Akt assay is provided in Table 2 under the column heading U87

PI3Kα [3] = target: T1, PI3Kα; experiment: In vitro PI3 kinase enzyme assay (PI3K ATP loss), alpha; type: biochemical; conditions: average if run more than once; read-out: ATP Loss (PBKα) IC50 μM (Avg)
Protocol: (§1) Full length p110 subunits of PI3K α, β and δ, N-terminally labeled with polyHis tag, can be co-expressed with p85 with Baculo virus expression vectors in sf9 insect cells. P110/p85 heterodimers can be purified by sequential Ni-NTA, Q-HP, Superdex-100 chromatography. Purified α, β and δ isozymes can be stored at −20° C. in 20 mM Tris, pH 8, 0.2M NaCl, 50% glycerol, 5 mM DTT, 2 mM Na cholate. […] The γ isozyme can be purified by sequential Ni-NTA, Superdex-200, Q-HP chromatography. The γ isozyme can be stored frozen at −80° C. in NaH2PO4, pH 8, 0.2M NaCl, 1% ethylene glycol, 2 mM β-mercaptoethanol.
(§2) In Vitro PI3 Kinase Enzyme Assays (PI3K Atploss)
(§3) PI3K enzyme assays (alpha, beta, delta and gamma) can be performed in 25 μL with the above final concentrations of components in white polyproplyene plates. Phosphatidyl inositol phosphoacceptor, PtdIns(4,5)P2 (eg. P4508) can be obtained from Echelon Biosciences, Salt Lake City, Utah. […] Test compounds can be dissolved in DMSO and diluted with three-fold serial dilutions. The compound in DMSO (1 μL) may be added per test well, and the inhibition relative to reactions containing no compound, with and without enzyme can be determined After assay incubation at RT, the reaction can be stopped and residual ATP can be determined by addition of an equal volume of a commercial ATP bioluminescence kit (Perkin Elmer EasyLite, Perkin Elmer, Waltham, Mass.) according to the manufacturer's instructions, and detected using an Analyst GT luminometer.

PI3Kβ = target: T3, PI3Kβ (Homo sapiens, UniProt P42338); experiment: In vitro PI3 kinase enzyme assay (PI3K ATP loss), beta; type: biochemical; conditions: average if run more than once
T3 construct: Full length p110 subunits of PI3K α, β and δ, N-terminally labeled with polyHis tag; polyHis (N); made in house; host or cells: Sf9 insect cells (baculovirus)
Protocol: as §1, §2, §3

[4] = tested on: phosphorylation of Akt at Ser473; experiment: Cell-based phospho-Akt Ser473 assay (HCT116 cell); conditions: HCT 116 human colon carcinoma cells, IGF-1 stimulated; average
Outline: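 HCT116 human colon carcinoma cells, 16,000/well, were treated with compounds in a 10-point 3-fold series for 2 h at 37 °C in McCoy's with 0.1% BSA. They were then stimulated with IGF-1 at 100 ng/ml for 15 min. Phospho-Akt Ser473 in lysates was measured by MSD electrochemiluminescent sandwich immunoassay, and IC50 came from dose-response.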

T2 sequence (P42345 1360-2549 limits assumed): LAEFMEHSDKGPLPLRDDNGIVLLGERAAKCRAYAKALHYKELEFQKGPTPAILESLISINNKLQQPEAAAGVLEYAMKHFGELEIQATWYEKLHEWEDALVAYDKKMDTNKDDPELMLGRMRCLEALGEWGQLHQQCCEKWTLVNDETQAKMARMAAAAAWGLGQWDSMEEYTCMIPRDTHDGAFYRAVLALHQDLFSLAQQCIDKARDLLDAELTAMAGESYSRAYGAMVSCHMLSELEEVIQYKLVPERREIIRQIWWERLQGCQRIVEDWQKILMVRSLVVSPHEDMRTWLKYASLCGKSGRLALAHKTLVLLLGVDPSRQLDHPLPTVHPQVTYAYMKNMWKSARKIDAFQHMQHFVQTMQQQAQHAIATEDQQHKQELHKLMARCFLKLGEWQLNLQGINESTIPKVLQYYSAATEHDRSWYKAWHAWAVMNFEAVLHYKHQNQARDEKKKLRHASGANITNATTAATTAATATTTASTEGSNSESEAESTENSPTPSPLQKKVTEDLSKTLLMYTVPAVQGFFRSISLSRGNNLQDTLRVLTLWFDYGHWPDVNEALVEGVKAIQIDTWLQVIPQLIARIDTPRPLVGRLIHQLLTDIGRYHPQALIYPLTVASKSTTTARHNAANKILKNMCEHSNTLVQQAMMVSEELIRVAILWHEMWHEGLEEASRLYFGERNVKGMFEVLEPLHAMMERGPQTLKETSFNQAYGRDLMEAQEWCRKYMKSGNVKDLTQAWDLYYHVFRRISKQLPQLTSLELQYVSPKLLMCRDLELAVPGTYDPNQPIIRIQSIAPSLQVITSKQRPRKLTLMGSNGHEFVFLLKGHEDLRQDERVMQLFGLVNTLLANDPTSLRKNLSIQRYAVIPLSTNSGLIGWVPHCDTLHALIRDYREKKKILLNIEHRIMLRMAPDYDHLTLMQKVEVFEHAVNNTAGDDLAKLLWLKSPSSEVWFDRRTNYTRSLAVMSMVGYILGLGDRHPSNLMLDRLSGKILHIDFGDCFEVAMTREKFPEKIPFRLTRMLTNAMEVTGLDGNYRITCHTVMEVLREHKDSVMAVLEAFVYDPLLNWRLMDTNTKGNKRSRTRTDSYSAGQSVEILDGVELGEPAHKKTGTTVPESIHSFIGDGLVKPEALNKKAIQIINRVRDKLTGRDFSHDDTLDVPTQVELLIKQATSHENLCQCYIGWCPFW
T1 sequence (P42336 whole entry): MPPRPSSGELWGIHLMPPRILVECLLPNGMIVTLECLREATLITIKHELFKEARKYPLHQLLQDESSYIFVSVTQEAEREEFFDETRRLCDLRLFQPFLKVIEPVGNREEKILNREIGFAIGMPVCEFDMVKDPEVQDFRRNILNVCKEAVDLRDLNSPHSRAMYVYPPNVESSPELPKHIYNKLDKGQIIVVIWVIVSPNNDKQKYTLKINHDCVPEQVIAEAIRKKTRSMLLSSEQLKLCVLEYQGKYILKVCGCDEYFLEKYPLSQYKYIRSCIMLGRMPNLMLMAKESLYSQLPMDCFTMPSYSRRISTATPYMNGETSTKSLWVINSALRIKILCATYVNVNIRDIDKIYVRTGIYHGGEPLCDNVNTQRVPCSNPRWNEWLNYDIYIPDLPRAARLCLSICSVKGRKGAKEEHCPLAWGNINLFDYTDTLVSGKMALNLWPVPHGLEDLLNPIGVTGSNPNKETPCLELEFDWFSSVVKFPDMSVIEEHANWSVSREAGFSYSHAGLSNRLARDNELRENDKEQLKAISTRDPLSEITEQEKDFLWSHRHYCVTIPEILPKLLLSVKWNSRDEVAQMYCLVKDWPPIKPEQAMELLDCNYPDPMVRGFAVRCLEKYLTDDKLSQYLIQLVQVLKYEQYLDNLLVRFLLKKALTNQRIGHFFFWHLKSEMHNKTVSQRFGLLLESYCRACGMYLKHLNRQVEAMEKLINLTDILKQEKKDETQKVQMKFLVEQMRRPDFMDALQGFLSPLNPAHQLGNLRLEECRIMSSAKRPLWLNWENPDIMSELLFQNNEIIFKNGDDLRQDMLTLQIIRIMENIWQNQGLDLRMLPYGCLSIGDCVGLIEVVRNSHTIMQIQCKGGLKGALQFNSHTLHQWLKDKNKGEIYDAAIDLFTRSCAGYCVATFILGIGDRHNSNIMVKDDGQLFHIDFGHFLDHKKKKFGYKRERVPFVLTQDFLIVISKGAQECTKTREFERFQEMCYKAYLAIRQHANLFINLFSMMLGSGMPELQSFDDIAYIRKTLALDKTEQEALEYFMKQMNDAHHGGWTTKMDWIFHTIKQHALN
T1 sequence (P27986 whole entry partner): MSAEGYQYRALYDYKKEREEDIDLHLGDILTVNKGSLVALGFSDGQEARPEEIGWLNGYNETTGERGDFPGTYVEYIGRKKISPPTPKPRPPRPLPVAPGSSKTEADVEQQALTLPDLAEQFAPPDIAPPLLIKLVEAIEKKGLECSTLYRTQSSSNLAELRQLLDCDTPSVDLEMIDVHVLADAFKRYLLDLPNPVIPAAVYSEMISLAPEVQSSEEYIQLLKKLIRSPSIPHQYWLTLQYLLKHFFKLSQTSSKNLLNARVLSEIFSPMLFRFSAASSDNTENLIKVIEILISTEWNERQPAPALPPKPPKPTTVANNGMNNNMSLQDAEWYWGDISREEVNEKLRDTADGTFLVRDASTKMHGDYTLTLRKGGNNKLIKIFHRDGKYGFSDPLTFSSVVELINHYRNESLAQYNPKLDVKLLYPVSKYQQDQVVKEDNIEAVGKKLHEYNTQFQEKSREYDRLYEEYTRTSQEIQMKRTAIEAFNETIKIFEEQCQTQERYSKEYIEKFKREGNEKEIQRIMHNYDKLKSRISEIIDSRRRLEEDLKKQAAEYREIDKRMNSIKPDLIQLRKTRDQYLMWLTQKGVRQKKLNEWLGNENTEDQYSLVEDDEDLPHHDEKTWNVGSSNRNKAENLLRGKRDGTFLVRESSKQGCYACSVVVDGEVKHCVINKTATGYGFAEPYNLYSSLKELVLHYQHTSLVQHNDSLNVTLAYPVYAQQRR
T3 sequence (P42338 whole entry): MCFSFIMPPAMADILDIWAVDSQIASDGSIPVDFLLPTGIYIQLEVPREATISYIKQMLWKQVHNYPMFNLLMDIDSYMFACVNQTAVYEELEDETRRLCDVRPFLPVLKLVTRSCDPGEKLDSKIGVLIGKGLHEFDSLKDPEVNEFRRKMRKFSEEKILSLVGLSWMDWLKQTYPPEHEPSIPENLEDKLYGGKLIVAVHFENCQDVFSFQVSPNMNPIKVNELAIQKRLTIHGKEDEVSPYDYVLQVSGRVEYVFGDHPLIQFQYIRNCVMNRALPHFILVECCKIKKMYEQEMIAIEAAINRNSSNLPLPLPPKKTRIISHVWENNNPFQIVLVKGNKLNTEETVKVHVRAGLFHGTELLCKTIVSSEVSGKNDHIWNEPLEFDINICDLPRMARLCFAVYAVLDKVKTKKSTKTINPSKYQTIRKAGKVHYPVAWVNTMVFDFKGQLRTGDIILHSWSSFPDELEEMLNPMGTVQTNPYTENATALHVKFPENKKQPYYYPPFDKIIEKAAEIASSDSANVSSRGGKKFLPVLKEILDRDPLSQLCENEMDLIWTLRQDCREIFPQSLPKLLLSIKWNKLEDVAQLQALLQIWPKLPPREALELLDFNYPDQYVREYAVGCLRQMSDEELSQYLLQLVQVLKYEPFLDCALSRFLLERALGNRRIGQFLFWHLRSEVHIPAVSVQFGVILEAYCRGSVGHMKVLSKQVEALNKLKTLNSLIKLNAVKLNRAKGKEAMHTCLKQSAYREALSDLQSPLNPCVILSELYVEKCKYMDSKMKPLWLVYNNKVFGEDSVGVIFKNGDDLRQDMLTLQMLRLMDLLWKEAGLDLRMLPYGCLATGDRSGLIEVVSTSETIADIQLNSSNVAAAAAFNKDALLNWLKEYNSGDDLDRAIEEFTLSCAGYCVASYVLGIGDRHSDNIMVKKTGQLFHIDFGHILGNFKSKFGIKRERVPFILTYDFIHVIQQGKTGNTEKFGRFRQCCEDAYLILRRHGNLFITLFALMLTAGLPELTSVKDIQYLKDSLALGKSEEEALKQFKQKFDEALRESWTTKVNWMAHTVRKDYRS
T3 sequence (P27986 whole entry partner): as the sequence (P27986 whole entry partner) above

Which results are given for `O=S(=O)(Nc1cc(N2CCc3ncccc3C2)cnc1Cl)c1ccc(F)cc1` [Example 135, N-(2-Chloro-5-(7,8-dihydro-1,6-naphthyridin-6(5H)-yl)pyridin-3-yl)-4-fluorobenzenesulfonamide]?
Ki (PI3Kα [1]): 0.0638 µM; IC50 (mTOR): 0.218 µM

How did the IC50 (mTOR) turn out when `O=S(=O)(Nc1cc(-c2ccc3ncc(-c4ccncc4)nc3c2)cnc1Cl)c1ccc(F)cc1` [Example 121, N-(2-Chloro-5-(3-(pyridin-4-yl)quinoxalin-6-yl)pyridin-3-yl)-4-fluorobenzenesulfonamide] was run?
The IC50 was 0.0057 µM.

What about the IC50 [2] of the same molecule?
Its IC50 is 0.031 µM.

With `O=c1c2cccnc2ccn1-c1cnc(Cl)c(NS(=O)(=O)c2ccc(F)cc2)c1` [Example 137, N-(2-chloro-5-(5-oxo-1,6-naphthyridin-6(5H)-yl)-3-pyridinyl)-4-fluorobenzenesulfonamide] as the molecule, how does the Ki (PI3Kα [1]) read?
The Ki was 0.548 µM.

What about the IC50 [2] of the same molecule?
Its IC50 is 2.98 µM.

With `COc1ccc(S(=O)(=O)Nc2cc(-c3ccc4c(c3)OCCO4)cnc2Cl)cc1` [Example 127, N-(2-Chloro-5-(2,3-dihydrobenzo[b][1,4]dioxin-6-yl)pyridin-3-yl)-4-methoxybenzenesulfonamide] as the molecule, how does the Ki (PI3Kα [1]) read?
Its Ki is 0.0273 µM.

What about the IC50 (mTOR) of the same molecule?
The IC50 was 0.0651 µM.

Which IC50 (mTOR) does the source give for `O=S(=O)(Nc1cc(-c2ccc3nccc(N4CCN(Cc5ccncc5)CC4)c3c2)cnc1Cl)c1ccc(F)cc1` [Example 89, N-(2-chloro-5-(4-(4-(4-pyridinylmethyl)-1-piperazinyl)-6-quinolinyl)-3-pyridinyl)-4-fluorobenzenesulfonamide] here?
The IC50 was 0.0039 µM.

And the IC50 [2]?
The IC50 was 0.0223 µM.

What does the source list for `CS(=O)(=O)Nc1cc(-c2ccc3nccc(C4CCOCC4)c3c2)cnc1Cl` [Example 114, N-(2-Chloro-5-(4-(tetrahydro-2H-pyran-4-yl)quinolin-6-yl)pyridin-3-yl)methanesulfonamide]?
IC50 (mTOR): 0.0063 µM; IC50 [2]: 0.0254 µM

How did the Ki (PI3Kα [1]) turn out when `COCC(C)Nc1ccnc2ccc(-c3cnc(Cl)c(NS(=O)(=O)c4ccc(F)cc4)c3)cc12` (stereo not shown) [Example 99, N-(2-chloro-5-(4-((2-methoxy-1-methylethyl)amino)-6-quinolinyl)-3-pyridinyl)-4-fluorobenzenesulfonamide] was run?
Its Ki is 0.121 µM.

And the IC50 (mTOR)?
Its IC50 is 2.39 µM.

Which IC50 (mTOR) does the source give for `O=S(=O)(Nc1cc(-c2ccc3nccc(-c4cccnc4)c3c2)cnc1Cl)c1ccc(F)cc1` [Example 93, N-(2-chloro-5-(4-(3-pyridinyl)-6-quinolinyl)-3-pyridinyl)-4-fluorobenzenesulfonamide] here?
Its IC50 is 0.0016 µM.

And the IC50 [2]?
Its IC50 is 0.0119 µM.

For `O=S(=O)(Nc1cc(-c2ccc3nccc(N4CCCC(O)CC4)c3c2)cnc1Cl)c1ccc(F)cc1` (stereo not shown) [Example 95, N-(2-chloro-5-(4-(4-hydroxy-1-azepanyl)-6-quinolinyl)-3-pyridinyl)-4-fluorobenzenesulfonamide], which Ki (PI3Kα [1]) is on record?
Its Ki is 0.0058 µM.

And the IC50 (mTOR)?
The IC50 was 0.111 µM.

What does the source list for `O=S(=O)(Nc1cc(-c2ccc3ncc(N4CCC(F)(F)CC4)nc3c2)cnc1Cl)c1ccc(F)cc1` [Example 58, N-(2-chloro-5-(3-(4,4-difluoro-1-piperidinyl)-6-quinoxalinyl)-3-pyridinyl)-4-fluorobenzenesulfonamide]?
IC50 (PI3Kα [3]): 0.0034 µM; IC50 (PI3Kβ): 0.0824 µM; IC50 [4]: 0.0635 µM

How did the IC50 (PI3Kα [3]) turn out when `CC(Nc1cnc2ccc(-c3cnc(Cl)c(NS(=O)(=O)c4ccc(F)cc4)c3)cc2n1)c1ccc(F)cc1` (stereo not shown) [Example 60, N-(2-chloro-5-(3-((1-(4-fluorophenyl)ethyl)amino)-6-quinoxalinyl)-3-pyridinyl)-4-fluorobenzenesulfonamide] was run?
Its IC50 is 0.0103 µM.

What about the IC50 (PI3Kβ) of the same molecule?
Its IC50 is 0.0436 µM.

What about the IC50 [4] of the same molecule?
The IC50 was 0.569 µM.

What does the source list for `O=S1(=O)CCC(Oc2ccnc3ccc(-c4cnc(Cl)c(NS(=O)(=O)c5ccc(F)cc5)c4)cc23)C1` (stereo not shown) [Example 115, N-(2-Chloro-5-(4-(tetrahydrothiophen-1,1-dioxide-3-yloxy)quinolin-6-yl)pyridin-3-yl)-4-fluorobenzenesulfonamide]?
IC50 (mTOR): 0.0126 µM; IC50 [2]: 0.194 µM

For `O=S(=O)(Nc1cc(-c2ccc3nccc(OCC4CCSCC4)c3c2)cnc1Cl)c1ccc(F)cc1` [Example 100, N-(2-chloro-5-(4-(tetrahydro-2H-thiopyran-4-ylmethoxy)-6-quinolinyl)-3-pyridinyl)-4-fluorobenzenesulfonamide], which Ki (PI3Kα [1]) is on record?
Its Ki is 0.0012 µM.

And the IC50 (mTOR)?
The IC50 was 0.04 µM.

For `O=C1COc2ccc(-c3cnc(Cl)c(NS(=O)(=O)c4ccc(F)cc4)c3)cc2N1` [Example 129, N-(2-Chloro-5-(3-oxo-3,4-dihydro-2H-benzo[b][1,4]oxazin-6-yl)pyridin-3-yl)-4-fluorobenzenesulfonamide], which Ki (PI3Kα [1]) is on record?
Its Ki is 0.0858 µM.

Which results are given for `CS(=O)(=O)Nc1cc(-c2ccc3nccc(N4CCOCC4)c3c2)cnc1Cl` [Example 11, N-(2-chloro-5-(4-(4-morpholinyl)-6-quinolinyl)-3-pyridinyl)methanesulfonamide]?
IC50 (PI3Kα [3]): 0.0458 µM; IC50 (PI3Kβ): 0.156 µM; IC50 [4]: 0.0501 µM

How did the IC50 (mTOR) turn out when `O=S(=O)(Nc1cc(-c2ccc3ncc(NCCN4CCOCC4)nc3c2)cnc1Cl)c1ccc(F)cc1` [Example 91, N-(2-chloro-5-(3-((2-(4-morpholinyl)ethyl)amino)-6-quinoxalinyl)-3-pyridinyl)-4-fluorobenzenesulfonamide] was run?
Its IC50 is 0.0053 µM.

And the IC50 [2]?
The IC50 was 0.075 µM.

Which IC50 (PI3Kα [3]) does the source give for `O=S(=O)(Nc1cc(-c2ccc3nccc(N4CCOCC4)c3c2)cnc1Cl)c1ccccc1F` [Example 32, N-(2-chloro-5-(4-(4-morpholinyl)-6-quinolinyl)-3-pyridinyl)-2-fluorobenzenesulfonamide] here?
Its IC50 is 0.005 µM.

What about the IC50 (PI3Kβ) of the same molecule?
Its IC50 is 0.0248 µM.

What about the IC50 [4] of the same molecule?
Its IC50 is 0.0117 µM.
